ChEMBL document CHEMBL4602617, “Discovery and optimization of heteroaryl piperazines as potent and selective PI3Kδ inhibitors” (Bioorg Med Chem Lett, 2020)
pIC50: −log10 of the molar value.

Experiments:
[1] = species on record: Homo sapiens; test: (§1) Selectivity index, ratio IC50 for inhibition of recombinant human full-length N-terminal His6-tagged p110beta/untagged full-length p85alpha expressed in baculovirus infected Sf21 cells to ratio IC50 for inhibition of recombinant human full-length N-terminal GST-tagged p110delta/untagged full-length p85alpha expressed in baculovirus infected Sf21 cells
[2] = species on record: Homo sapiens; test: Selectivity index, ratio IC50 for inhibition of recombinant human N-terminal His6-tagged full-length p120gamma expressed in Sf21 insect cells to ratio IC50 for inhibition of recombinant human full-length N-terminal GST-tagged p110delta/untagged full-length p85alpha expressed in baculovirus infected Sf21 cells
[3] = biological target: PI3-kinase p110-delta/p85-alpha (Homo sapiens, UniProt O00329); test: Inhibition of recombinant human full-length N-terminal GST-tagged p110delta/untagged full-length p85alpha expressed in baculovirus infected Sf21 cells using PIP2 as substrate preincubated for 15 mins followed by substrate addition and measured after 1 hr by HTRF assay
Sequence of PI3-kinase p110-delta/p85-alpha (P27986 whole entry, one chain of several): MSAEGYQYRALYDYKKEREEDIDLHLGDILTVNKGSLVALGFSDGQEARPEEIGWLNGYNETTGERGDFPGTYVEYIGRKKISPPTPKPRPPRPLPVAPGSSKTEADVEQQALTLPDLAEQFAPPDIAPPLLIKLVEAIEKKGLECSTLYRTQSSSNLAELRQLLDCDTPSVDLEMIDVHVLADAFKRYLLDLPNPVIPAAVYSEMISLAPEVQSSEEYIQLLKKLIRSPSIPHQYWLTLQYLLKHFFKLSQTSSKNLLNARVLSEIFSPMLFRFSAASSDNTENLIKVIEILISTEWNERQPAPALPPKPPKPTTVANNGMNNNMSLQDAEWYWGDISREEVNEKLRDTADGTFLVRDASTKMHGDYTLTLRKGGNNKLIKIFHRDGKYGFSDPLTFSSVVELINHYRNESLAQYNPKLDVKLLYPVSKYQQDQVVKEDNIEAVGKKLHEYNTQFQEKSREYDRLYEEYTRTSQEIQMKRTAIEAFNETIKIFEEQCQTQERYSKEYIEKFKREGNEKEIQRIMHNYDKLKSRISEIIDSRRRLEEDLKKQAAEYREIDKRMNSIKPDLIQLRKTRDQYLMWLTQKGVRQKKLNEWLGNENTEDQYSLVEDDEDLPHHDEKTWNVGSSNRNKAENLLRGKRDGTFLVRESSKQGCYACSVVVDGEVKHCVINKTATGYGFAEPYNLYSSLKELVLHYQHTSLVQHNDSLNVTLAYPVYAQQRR

[4] = Clearance in human liver microsomes; assay type: ADME, Microsome; conditions: read-out: CLH
[5] = biological target: T1, Phosphatidylinositol 4,5-bisphosphate 3-kinase catalytic subunit delta isoform (Homo sapiens, UniProt O00329); test: Inhibition of PI3K delta in human whole blood assessed as inhibition of anti-IgE-stimulated CysLt release in basophils preincubated for 30 mins followed by anti-IgE stimulation and measured after 20 mins; assay type: tissue-based
T1 sequence (O00329 whole entry): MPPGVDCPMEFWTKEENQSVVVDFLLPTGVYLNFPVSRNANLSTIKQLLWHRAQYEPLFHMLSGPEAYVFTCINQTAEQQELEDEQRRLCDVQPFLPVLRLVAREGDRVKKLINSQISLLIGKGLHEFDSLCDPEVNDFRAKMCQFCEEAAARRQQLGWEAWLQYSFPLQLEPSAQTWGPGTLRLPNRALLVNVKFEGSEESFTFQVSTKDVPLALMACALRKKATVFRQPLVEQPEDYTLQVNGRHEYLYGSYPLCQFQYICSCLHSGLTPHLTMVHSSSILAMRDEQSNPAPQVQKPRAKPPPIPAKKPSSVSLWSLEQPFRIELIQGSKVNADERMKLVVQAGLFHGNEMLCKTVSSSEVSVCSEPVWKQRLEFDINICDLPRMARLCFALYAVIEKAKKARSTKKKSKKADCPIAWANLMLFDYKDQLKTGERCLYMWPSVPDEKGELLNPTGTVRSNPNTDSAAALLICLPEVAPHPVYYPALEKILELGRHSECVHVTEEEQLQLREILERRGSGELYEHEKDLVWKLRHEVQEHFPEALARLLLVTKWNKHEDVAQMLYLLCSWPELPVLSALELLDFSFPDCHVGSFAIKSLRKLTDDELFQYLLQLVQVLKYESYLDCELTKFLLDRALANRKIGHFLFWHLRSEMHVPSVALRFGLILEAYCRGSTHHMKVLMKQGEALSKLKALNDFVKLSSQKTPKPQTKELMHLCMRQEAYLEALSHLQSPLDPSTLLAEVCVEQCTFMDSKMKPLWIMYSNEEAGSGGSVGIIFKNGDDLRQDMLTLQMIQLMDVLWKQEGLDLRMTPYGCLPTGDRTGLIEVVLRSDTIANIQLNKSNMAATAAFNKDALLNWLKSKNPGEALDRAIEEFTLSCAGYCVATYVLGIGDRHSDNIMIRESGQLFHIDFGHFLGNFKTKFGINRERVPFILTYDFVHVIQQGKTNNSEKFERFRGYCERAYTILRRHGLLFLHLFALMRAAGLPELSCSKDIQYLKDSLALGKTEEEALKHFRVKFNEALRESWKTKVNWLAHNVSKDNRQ

[6] = Distribution coefficient, logD of compound by HPLC analysis; assay type: physicochemical; conditions: octanol/water
[7] = species on record: Homo sapiens; test: as §1, with “p110alpha/untagged” for “p110beta/untagged”
[8] = Clearance in rat liver microsomes; assay type: ADME, Microsome; conditions: read-out: CLH
[9] = Clearance in Wistar Han rat plasma at 0.05 mg/kg, iv administered as cassette dose; assay type: ADME, organism-based
[10] = Intrinsic clearance in human hepatocytes; assay type: ADME, cell-based, Hepatocyte; conditions: read-out: CLH
[11] = Volume of drug distribution in Wistar Han rat at 0.05 mg/kg, iv administered as cassette dose; assay type: ADME, organism-based; conditions: in vivo
[12] = Intrinsic clearance in rat hepatocytes; assay type: ADME, cell-based, Hepatocyte; conditions: read-out: CLH
[13] = Half life in Wistar Han rat at 0.05 mg/kg, iv administered as cassette dose; assay type: ADME, organism-based; conditions: in vivo
[14] = Protein binding in Wistar Han rat plasma at 0.05 mg/kg, iv administered as cassette dose; assay type: ADME, organism-based; conditions: read-out: PPB (converted)
[15] = Unbound clearance in Wistar Han rat at 0.05 mg/kg, iv administered as cassette dose; assay type: ADME, organism-based; conditions: in vivo

| Compound | pIC50 [3] | CLint scaled [4] [mL/min/kg] | pIC50 [5] | logD [6] | CLint scaled [8] [mL/min/kg] | clearance [9] [mL/min/kg] | CLint scaled [10] [mL/min/kg] | Vd [11] [L/kg] | CLint scaled [12] [mL/min/kg] | half-life [13] [min] | fraction unbound [14] | CL free [15] [mL/min/kg] | Ratio IC50 [1] | Ratio IC50 [2] | Ratio IC50 [7] |
| --- | --- | --- | --- | --- | --- | --- | --- | --- | --- | --- | --- | --- | --- | --- | --- |
| N#Cc1cnc(-c2cnc3[nH]ccc3c2)nc1N1C[C@@H]2C[C@H]1CN2c1cccc(F)c1 | 6.04 | – | – | – | – | – | – | – | – | – | – | – | > 14 | > 14 | 8 |
| N#Cc1cnc(-c2ccccc2)nc1N1C[C@@H]2C[C@H]1CN2c1cccc(F)c1 | < 5.00 | – | – | 4.5 | – | – | – | – | – | – | – | – | – | – | – |
| Cn1cc(-c2ncc(C#N)c(N3CCN(c4cccc(F)c4)CC3)n2)cn1 | 5.80 | – | – | 3.2 | – | – | – | – | – | – | – | – | > 8 | > 8 | > 8 |
| CCC(=O)N1CCN(c2nc(-c3cnn(C)c3)ncc2C#N)C[C@H]1C | 6.58 | < 16 | 5.64 | 1.4 | < 36 | – | – | – | – | – | – | – | > 48 | > 48 | > 48 |
| C[C@@H]1CN(c2nc(-c3cnn(C)c3)ncc2C#N)CCN1C(=O)C1(C)CC1 | 5.98 | < 16 | 5.24 | 1.7 | < 36 | – | – | – | – | – | – | – | > 12 | > 12 | > 12 |
| N#Cc1cnc(-c2cccnc2)nc1N1C[C@@H]2C[C@H]1CN2c1cccc(Cl)c1 | 6.32 | – | – | 3.82 | – | – | – | – | – | – | – | – | 14 | > 105 | 62 |
| Cn1cc(-c2ncc(C#N)c(N3CCN(c4cccc(F)c4)C(C)(C)C3)n2)cn1 | 5.82 | 91 | – | 3.6 | 2050 | – | – | – | – | – | – | – | > 8 | > 8 | > 8 |
| C[C@@H]1CN(c2nc(-c3cnn(C)c3)cnc2C#N)CCN1C(=O)C1CC1 | 6.73 | 50 | 6.13 | 1.9 | 39 | – | – | – | – | – | – | – | > 67 | > 67 | > 67 |
| Cn1cc(-c2ncc(C#N)c(N3C[C@@H]4C[C@H]3CN4CC3CC3)n2)cn1 | 5.85 | < 16 | 5.16 | 1.5 | 158 | – | – | – | – | – | – | – | – | – | – |
| CCNC(=O)N1C[C@@H]2C[C@H]1CN2c1nc(-c2cnn(C)c2)ncc1C#N | 5.66 | – | – | 0.8 | – | – | – | – | – | – | – | – | 6 | 6 | > 6 |
| Cn1cc(-c2ncc(C#N)c(N3CC4CCC(C3)N4c3cccc(F)c3)n2)cn1 | 5.99 | 62 | – | 3.3 | 529 | – | – | – | – | – | – | – | > 12 | > 12 | > 12 |
| N#Cc1cnc(-c2cccnc2)nc1N1C[C@@H]2C[C@H]1CN2c1cccc(F)c1 | 6.44 | – | – | 3.43 | – | 90 | 69 | 3.6 | 234 | 36 | – | – | > 27 | > 27 | > 27 |
| C[C@@H]1CN(c2nc(-c3cnn(C)c3)ncc2C#N)CCN1C(=O)C1CCC1 | 6.43 | < 16 | 5.81 | 2 | < 36 | – | – | – | – | – | – | – | > 33 | > 33 | > 33 |
| Cn1cc(-c2ncc(C#N)c(N3C[C@@H]4C[C@H]3CN4S(=O)(=O)C3CC3)n2)cn1 | 5.93 | < 16 | 5.39 | 1.6 | < 36 | – | – | – | – | – | – | – | 10 | 10 | > 10 |

Now those with a higher pIC50 [3], led by results:

| pIC50 [3] | CLint scaled [4] [mL/min/kg] | pIC50 [5] | logD [6] | CLint scaled [8] [mL/min/kg] | clearance [9] [mL/min/kg] | CLint scaled [10] [mL/min/kg] | Vd [11] [L/kg] | CLint scaled [12] [mL/min/kg] | half-life [13] [min] | fraction unbound [14] | CL free [15] [mL/min/kg] | Compound | Ratio IC50 [1] | Ratio IC50 [2] | Ratio IC50 [7] |
| --- | --- | --- | --- | --- | --- | --- | --- | --- | --- | --- | --- | --- | --- | --- | --- |
| 6.78 | – | – | 3.3 | – | – | – | – | – | – | – | – | C[C@@H]1CN(c2nc(-c3cnn(C)c3)ncc2C#N)CCN1c1cccc(F)c1 | > 76 | > 76 | > 76 |
| 6.79 | < 16 | 6.59 | 1.1 | < 36 | 46 | – | 0.9 | – | 12 | 0.54 | 85 | Cn1cc(-c2ncc(C#N)c(N3C[C@@H]4C[C@H]3CN4C(=O)C3CC3)n2)cn1 | 78 | 78 | > 78 |
| 6.97 | 21 | 6.48 | 1.5 | < 36 | – | – | – | – | – | – | – | C[C@@H]1CN(c2nc(-c3cnn(C)c3)ncc2C#N)CCN1C(=O)C1CC1 | > 116 | > 116 | > 116 |
| 7.07 | – | – | 2.9 | – | – | – | – | – | – | – | – | N#Cc1cnc(N2Cc3cn[nH]c3C2)nc1N1C[C@@H]2C[C@H]1CN2c1cccc(F)c1 | > 146 | > 146 | > 146 |
| 7.10 | < 16 | 6.25 | 2 | < 36 | – | – | – | – | – | – | – | CC1CC1C(=O)N1CCN(c2nc(-c3cnn(C)c3)ncc2C#N)C[C@H]1C (mixture of isomers) | > 159 | 159 | > 159 |
| 7.25 | – | – | 3.4 | – | – | – | – | – | – | – | – | N#Cc1cnc(-c2ccnc3[nH]ccc23)nc1N1C[C@@H]2C[C@H]1CN2c1cccc(F)c1 | 93 | 225 | 76 |
| 7.48 | < 16 | 6.66 | 1.8 | < 36 | – | – | – | – | – | – | – | C[C@@H]1CN(c2cnc(C#N)c(-c3cnn(C)c3)n2)CCN1C(=O)C1CC1 | > 384 | > 384 | > 384 |
| 7.49 | < 16 | 6.73 | 1.9 | 54 | – | – | – | – | – | – | – | C[C@@H]1C[C@H]1C(=O)N1CCN(c2nc(-c3cnn(C)c3)ncc2C#N)C[C@H]1C | > 394 | > 394 | > 394 |
| 7.51 | 76 | 5.53 | 3.1 | 1080 | 68 | – | 4.7 | – | 66 | 0.014 | 4857 | Cn1cc(-c2ncc(C#N)c(N3C[C@@H]4C[C@H]3CN4c3cccc(F)c3)n2)cn1 | 308 | > 407 | 160 |
| 7.68 | < 16 | 6.12 | 2 | 39 | – | – | – | – | – | – | – | C[C@@H]1CN(c2ncc(C#N)c(-c3cnn(C)c3)n2)CCN1C(=O)C1CC1 | > 583 | 764 | > 583 |
